{"source": "PubChem BioAssay (NCI)", "assay_in_all_cases": "growth of human tumour cells (NCI), 48 h", "key": {"SNB-75 CNS": {"test_system": "SNB-75 CNS"}, "IGROV1 ovarian": {"test_system": "IGROV1 ovarian"}, "SF-268 CNS": {"test_system": "SF-268 CNS"}, "MCF7 breast": {"test_system": "MCF7 breast"}, "A549 NSCLC": {"test_system": "A549 NSCLC"}, "MDA-MB-231 breast": {"test_system": "MDA-MB-231 breast"}, "OVCAR-3 ovarian": {"test_system": "OVCAR-3 ovarian"}, "HT29 colon": {"test_system": "HT29 colon"}, "HOP-62 NSCLC": {"test_system": "HOP-62 NSCLC"}, "UO-31 renal": {"test_system": "UO-31 renal"}, "UACC-257 melanoma": {"test_system": "UACC-257 melanoma"}, "786-0 renal": {"test_system": "786-0 renal"}, "M14 melanoma": {"test_system": "M14 melanoma"}, "KM12 colon": {"test_system": "KM12 colon"}, "RXF 393 renal": {"test_system": "RXF 393 renal"}, "MDA-MB-435": {"test_system": "MDA-MB-435"}, "BT-549 breast": {"test_system": "BT-549 breast"}, "K-562 leukemia": {"test_system": "K-562 leukemia"}, "RPMI-8226 leukemia": {"test_system": "RPMI-8226 leukemia"}, "MOLT-4 leukemia": {"test_system": "MOLT-4 leukemia"}, "SW-620 colon": {"test_system": "SW-620 colon"}, "HCC-2998 colon": {"test_system": "HCC-2998 colon"}, "HCT-116 colon": {"test_system": "HCT-116 colon"}, "A498 renal": {"test_system": "A498 renal"}, "SK-OV-3 ovarian": {"test_system": "SK-OV-3 ovarian"}, "SNB-19 CNS": {"test_system": "SNB-19 CNS"}, "CCRF-CEM leukemia": {"test_system": "CCRF-CEM leukemia"}, "OVCAR-8 ovarian": {"test_system": "OVCAR-8 ovarian"}}, "note": "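Test compounds were applied to cells in 96-well plates for 48 hours at 5 doses. GI50: concentration for 50% inhibition of growth. TGI: total growth inhibition.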", "data": [{"molecule": "Oc1c(Cl)cc(Cl)cc1/C=N/Nc1nnc(N/N=C/c2cc(Cl)cc(Cl)c2O)c2ccccc12", "values": [{"measurement": "TGI", "setting": "SNB-75 CNS", "result": "> 31100", "unit": "nM"}, {"measurement": "GI50", "setting": "IGROV1 ovarian", "result": 419, "unit": "nM"}, {"measurement": "TGI", "setting": "IGROV1 ovarian", "result": "> 100000", "unit": "nM"}, {"measurement": "GI50", "setting": "SF-268 CNS", "result": 407, "unit": "nM"}, {"measurement": "TGI", "setting": "SF-268 CNS", "result": "> 100000", "unit": "nM"}, {"measurement": "GI50", "setting": "MCF7 breast", "result": 482, "unit": "nM"}, {"measurement": "TGI", "setting": "MCF7 breast", "result": "> 100000", "unit": "nM"}, {"measurement": "GI50", "setting": "A549 NSCLC", "result": 419, "unit": "nM"}, {"measurement": "TGI", "setting": "A549 NSCLC", "result": "> 100000", "unit": "nM"}, {"measurement": "GI50", "setting": "MDA-MB-231 breast", "result": 479, "unit": "nM"}, {"measurement": "TGI", "setting": "MDA-MB-231 breast", "result": "> 100000", "unit": "nM"}, {"measurement": "GI50", "setting": "OVCAR-3 ovarian", "result": 334, "unit": "nM"}, {"measurement": "TGI", "setting": "OVCAR-3 ovarian", "result": 18200, "unit": "nM"}, {"measurement": "GI50", "setting": "HT29 colon", "result": 595, "unit": "nM"}, {"measurement": "TGI", "setting": "HT29 colon", "result": "> 100000", "unit": "nM"}, {"measurement": "GI50", "setting": "HOP-62 NSCLC", "result": 388, "unit": "nM"}, {"measurement": "TGI", "setting": "HOP-62 NSCLC", "result": "> 28800", "unit": "nM"}, {"measurement": "GI50", "setting": "UO-31 renal", "result": 430, "unit": "nM"}, {"measurement": "TGI", "setting": "UO-31 renal", "result": "> 100000", "unit": "nM"}, {"measurement": "GI50", "setting": "UACC-257 melanoma", "result": 1440, "unit": "nM"}, {"measurement": "TGI", "setting": "UACC-257 melanoma", "result": "> 100000", "unit": "nM"}, {"measurement": "GI50", "setting": "786-0 renal", "result": 418, "unit": "nM"}, {"measurement": "TGI", "setting": "786-0 renal", "result": "> 100000", "unit": "nM"}, {"measurement": "GI50", "setting": "M14 melanoma", "result": 434, "unit": "nM"}, {"measurement": "TGI", "setting": "M14 melanoma", "result": "> 100000", "unit": "nM"}, {"measurement": "GI50", "setting": "KM12 colon", "result": 335, "unit": "nM"}, {"measurement": "TGI", "setting": "KM12 colon", "result": "> 100000", "unit": "nM"}, {"measurement": "GI50", "setting": "RXF 393 renal", "result": 278, "unit": "nM"}, {"measurement": "TGI", "setting": "RXF 393 renal", "result": 798, "unit": "nM"}, {"measurement": "GI50", "setting": "MDA-MB-435", "result": 484, "unit": "nM"}, {"measurement": "TGI", "setting": "MDA-MB-435", "result": "> 30900", "unit": "nM"}, {"measurement": "GI50", "setting": "BT-549 breast", "result": 549, "unit": "nM"}, {"measurement": "TGI", "setting": "BT-549 breast", "result": "> 100000", "unit": "nM"}, {"measurement": "GI50", "setting": "K-562 leukemia", "result": 372, "unit": "nM"}, {"measurement": "TGI", "setting": "K-562 leukemia", "result": "> 100000", "unit": "nM"}, {"measurement": "GI50", "setting": "RPMI-8226 leukemia", "result": 405, "unit": "nM"}, {"measurement": "TGI", "setting": "RPMI-8226 leukemia", "result": "> 100000", "unit": "nM"}, {"measurement": "GI50", "setting": "MOLT-4 leukemia", "result": 363, "unit": "nM"}, {"measurement": "TGI", "setting": "MOLT-4 leukemia", "result": "> 100000", "unit": "nM"}, {"measurement": "GI50", "setting": "SW-620 colon", "result": 416, "unit": "nM"}, {"measurement": "TGI", "setting": "SW-620 colon", "result": "> 100000", "unit": "nM"}, {"measurement": "GI50", "setting": "HCC-2998 colon", "result": 469, "unit": "nM"}, {"measurement": "TGI", "setting": "HCC-2998 colon", "result": "> 100000", "unit": "nM"}, {"measurement": "GI50", "setting": "HCT-116 colon", "result": 433, "unit": "nM"}, {"measurement": "TGI", "setting": "HCT-116 colon", "result": "> 100000", "unit": "nM"}, {"measurement": "GI50", "setting": "A498 renal", "result": 2190, "unit": "nM"}, {"measurement": "TGI", "setting": "A498 renal", "result": "> 100000", "unit": "nM"}, {"measurement": "GI50", "setting": "SK-OV-3 ovarian", "result": 563, "unit": "nM"}, {"measurement": "TGI", "setting": "SK-OV-3 ovarian", "result": "> 81700", "unit": "nM"}, {"measurement": "GI50", "setting": "SNB-19 CNS", "result": 505, "unit": "nM"}, {"measurement": "TGI", "setting": "SNB-19 CNS", "result": "> 100000", "unit": "nM"}, {"measurement": "GI50", "setting": "CCRF-CEM leukemia", "result": 275, "unit": "nM"}, {"measurement": "GI50", "setting": "OVCAR-8 ovarian", "result": 406, "unit": "nM"}, {"measurement": "TGI", "setting": "OVCAR-8 ovarian", "result": "> 100000", "unit": "nM"}]}]}
